Experimental data published in patent US12108719B2, “Methods for creating doubled haploid plants” (Monsanto Technology LLC, priority 2015, dated 2024).

Tested on: diploid maize plant
Assay: Multibud induction, embryo axis method (Example 8)
Format: in vivo
Protocol: Seeds of a diploid maize plant were surface sterilized comprising immersion using standard methods of the art and then germinated in vitro in growth media. One of the resulting seedlings was dissected from its seed two days after germination (embryo axis method). The dissected axis was then subjected to a multibud induction treatment comprising transfer to fresh multibud induction media containing cytokinin in the form of 10 mg/L BAP. After seven days in the multibud bud induction media, the treated seedlings were transferred back to a hormone-free regeneration media. […] These multibuds were dissected from the mother plant and transferred to rooting media comprising IBA and IAA. After approximately one week, the multibud-derived plants were transplanted into 10 inch pots and allowed to grow in a greenhouse until it was clear that each autonomously-growing multibud-derived shoot had formed ears and tassels that nicked. Each ear was then pollinated from the tassel growing in the same pot and then all plants were allowed to grow in greenhouse conditions until seed set.

Question: With c1ccc(CNc2ncnc3nc[nH]c23)cc1 [BAP, 6-Benzylaminopurine] as the compound, how does the multibud formation (10 mg/L BAP for seven days, observed after approximately twenty days) read?
Answer: The multibud formation was “induced multibuds could be seen growing from the nodal regions of the stem”.

Question: And the “seed borne by ears of multibud-derived plants” value (10 mg/L BAP multibud induction, self-pollinated multibud-derived plants)?
Answer: Its value is “dozens of seed each”.
